According to patent US7118895B2, “Process for producing aglycon by using diglycosidase and flavor-improved food containing the aglycon and converting agent to be used in the process” (Amano Enzyme Inc., priority 2000, dated 2006):

Columns and labels:
[1] = test system: Diglycosidase derived from P. multicolor; test: Reactivity toward various isoflavone glycosides (HPLC); assay type: biochemical, Penicillium multicolor; design: glucoside / aglycon: unit not given here; conditions: 55 °C, pH 4.0
How it was run: (§1)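 Enzymes at 0.75 AU/mL in pH 4.0 acetate buffer were reacted at 55° C with individual isoflavone glycosides (substrate stock 2 mM in methanol) in 20 mM acetate pH 4.0. Aglycone release followed at 0, 1, 3 and 6 h: ethanol-quenched, ODS HPLC with UV 260 nm, quantified against calibration curves.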

[2] = test system: β-Glucosidase derived from A. niger; test: as above; assay type: biochemical, Aspergillus niger; design: glucoside / aglycon: unit not given here; conditions: 55 °C, pH 4.0
How it was run: as §1

[3] = test system: Crude diglycosidase; test: Examination of substrate concentration in the conversion into isoflavone aglycons by diglycosidase using soybean materials; assay type: biochemical, Penicillium multicolor IAM7153;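 note: percent of the isoflavone family total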
How it was run: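 Soybean materials (roasted soy flour, soymilk, defatted soybean, concentrated soy protein) at 2–30% (w/v) in 20 mM acetate pH 4.0 were reacted with crude diglycosidase at 55° C with shaking; enzyme solution added was 1.88 AU/mL. Samples taken at 0, 1, 3 and 6 h were ethanol-extracted and analyzed by HPLC.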

SMILES: COc1cc2c(=O)c(-c3ccc(O)cc3)coc2cc1O[C@@H]1O[C@H](COC(=O)CC(=O)O)[C@@H](O)[C@H](O)[C@H]1O [malonylglycitin, 6″-O-malonylglycitin]
- aglycon ([1]; Reaction time 0 h): 0
- glucoside ([1]; Reaction time 0 h): 100
- aglycon ([1]; Reaction time 1 h): 78.3
- glucoside ([1]; Reaction time 1 h): 21.7
- aglycon ([1]; Reaction time 3 h): 84.5
- glucoside ([1]; Reaction time 3 h): 15.5
- aglycon ([1]; Reaction time 6 h): 86
- glucoside ([1]; Reaction time 6 h): 14
- aglycon ([2]; Reaction time 0 h): 0
- glucoside ([2]; Reaction time 0 h): 100
- aglycon ([2]; Reaction time 1 h): 1.2
- glucoside ([2]; Reaction time 1 h): 98.8
- aglycon ([2]; Reaction time 3 h): 4.4
- glucoside ([2]; Reaction time 3 h): 95.6
- aglycon ([2]; Reaction time 6 h): 9.1
- glucoside ([2]; Reaction time 6 h): 90.9
- Decomposition efficiency: ratio of each glycoside/aglycon within its isoflavone family ([3]; concentrated soybean protein, substrate concentration 2%, heat treatment of enzyme no, reaction time 0 h): 0.4%
- Decomposition efficiency: ratio of each glycoside/aglycon within its isoflavone family ([3]; concentrated soybean protein, substrate concentration 2%, heat treatment of enzyme no, reaction time 1 h): 0.4%
- Decomposition efficiency: ratio of each glycoside/aglycon within its isoflavone family ([3]; concentrated soybean protein, substrate concentration 2%, heat treatment of enzyme no, reaction time 3 h): 0.2%
- Decomposition efficiency: ratio of each glycoside/aglycon within its isoflavone family ([3]; concentrated soybean protein, substrate concentration 2%, heat treatment of enzyme no, reaction time 6 h): not detected
- Decomposition efficiency: ratio of each glycoside/aglycon within its isoflavone family ([3]; concentrated soybean protein, substrate concentration 2%, heat treatment of enzyme yes, reaction time 6 h): 0.4%
- Decomposition efficiency: ratio of each glycoside/aglycon within its isoflavone family ([3]; concentrated soybean protein, substrate concentration 5%, heat treatment of enzyme no, reaction time 0 h): 0.4%
- Decomposition efficiency: ratio of each glycoside/aglycon within its isoflavone family ([3]; concentrated soybean protein, substrate concentration 5%, heat treatment of enzyme no, reaction time 1 h): 0.5%
- Decomposition efficiency: ratio of each glycoside/aglycon within its isoflavone family ([3]; concentrated soybean protein, substrate concentration 5%, heat treatment of enzyme no, reaction time 3 h): 0.4%
- Decomposition efficiency: ratio of each glycoside/aglycon within its isoflavone family ([3]; concentrated soybean protein, substrate concentration 5%, heat treatment of enzyme no, reaction time 6 h): 0.2%
- Decomposition efficiency: ratio of each glycoside/aglycon within its isoflavone family ([3]; concentrated soybean protein, substrate concentration 5%, heat treatment of enzyme yes, reaction time 6 h): 0.4%
- Decomposition efficiency: ratio of each glycoside/aglycon within its isoflavone family ([3]; concentrated soybean protein, substrate concentration 10%, heat treatment of enzyme no, reaction time 0 h): 0.3%
- Decomposition efficiency: ratio of each glycoside/aglycon within its isoflavone family ([3]; concentrated soybean protein, substrate concentration 10%, heat treatment of enzyme no, reaction time 1 h): 0.4%
- Decomposition efficiency: ratio of each glycoside/aglycon within its isoflavone family ([3]; concentrated soybean protein, substrate concentration 10%, heat treatment of enzyme no, reaction time 3 h): 0.3%
- Decomposition efficiency: ratio of each glycoside/aglycon within its isoflavone family ([3]; concentrated soybean protein, substrate concentration 10%, heat treatment of enzyme no, reaction time 6 h): 0.3%
- Decomposition efficiency: ratio of each glycoside/aglycon within its isoflavone family ([3]; concentrated soybean protein, substrate concentration 10%, heat treatment of enzyme yes, reaction time 6 h): 0.3%
- Decomposition efficiency: ratio of each glycoside/aglycon within its isoflavone family ([3]; concentrated soybean protein, substrate concentration 20%, heat treatment of enzyme no, reaction time 0 h): 0.2%
- Decomposition efficiency: ratio of each glycoside/aglycon within its isoflavone family ([3]; concentrated soybean protein, substrate concentration 20%, heat treatment of enzyme no, reaction time 1 h): 0.3%
- Decomposition efficiency: ratio of each glycoside/aglycon within its isoflavone family ([3]; concentrated soybean protein, substrate concentration 20%, heat treatment of enzyme no, reaction time 3 h): 0.2%
- Decomposition efficiency: ratio of each glycoside/aglycon within its isoflavone family ([3]; concentrated soybean protein, substrate concentration 20%, heat treatment of enzyme no, reaction time 6 h): 0.3%
- Decomposition efficiency: ratio of each glycoside/aglycon within its isoflavone family ([3]; concentrated soybean protein, substrate concentration 20%, heat treatment of enzyme yes, reaction time 6 h): 0.4%
- Decomposition efficiency: ratio of each glycoside/aglycon within its isoflavone family ([3]; concentrated soybean protein, substrate concentration 30%, heat treatment of enzyme no, reaction time 0 h): 0.4%
- Decomposition efficiency: ratio of each glycoside/aglycon within its isoflavone family ([3]; concentrated soybean protein, substrate concentration 30%, heat treatment of enzyme no, reaction time 1 h): 0.6%
- Decomposition efficiency: ratio of each glycoside/aglycon within its isoflavone family ([3]; concentrated soybean protein, substrate concentration 30%, heat treatment of enzyme no, reaction time 3 h): 0.5%
- Decomposition efficiency: ratio of each glycoside/aglycon within its isoflavone family ([3]; concentrated soybean protein, substrate concentration 30%, heat treatment of enzyme no, reaction time 6 h): 0.3%
- Decomposition efficiency: ratio of each glycoside/aglycon within its isoflavone family ([3]; concentrated soybean protein, substrate concentration 30%, heat treatment of enzyme yes, reaction time 6 h): 0.4%
- Decomposition efficiency: ratio of each glycoside/aglycon within its isoflavone family ([3]; defatted soybean, substrate concentration 2%, heat treatment of enzyme no, reaction time 0 h): not detected
- Decomposition efficiency: ratio of each glycoside/aglycon within its isoflavone family ([3]; defatted soybean, substrate concentration 2%, heat treatment of enzyme no, reaction time 1 h): not detected
- Decomposition efficiency: ratio of each glycoside/aglycon within its isoflavone family ([3]; defatted soybean, substrate concentration 2%, heat treatment of enzyme no, reaction time 3 h): not detected
- Decomposition efficiency: ratio of each glycoside/aglycon within its isoflavone family ([3]; defatted soybean, substrate concentration 2%, heat treatment of enzyme no, reaction time 6 h): not detected
- Decomposition efficiency: ratio of each glycoside/aglycon within its isoflavone family ([3]; defatted soybean, substrate concentration 2%, heat treatment of enzyme yes, reaction time 6 h): not detected
- Decomposition efficiency: ratio of each glycoside/aglycon within its isoflavone family ([3]; defatted soybean, substrate concentration 5%, heat treatment of enzyme no, reaction time 0 h): 58.4%
- Decomposition efficiency: ratio of each glycoside/aglycon within its isoflavone family ([3]; defatted soybean, substrate concentration 5%, heat treatment of enzyme no, reaction time 1 h): 41.6%
- Decomposition efficiency: ratio of each glycoside/aglycon within its isoflavone family ([3]; defatted soybean, substrate concentration 5%, heat treatment of enzyme no, reaction time 3 h): 31.8%
- Decomposition efficiency: ratio of each glycoside/aglycon within its isoflavone family ([3]; defatted soybean, substrate concentration 5%, heat treatment of enzyme no, reaction time 6 h): 19.5%
- Decomposition efficiency: ratio of each glycoside/aglycon within its isoflavone family ([3]; defatted soybean, substrate concentration 5%, heat treatment of enzyme yes, reaction time 6 h): 58.5%
- Decomposition efficiency: ratio of each glycoside/aglycon within its isoflavone family ([3]; defatted soybean, substrate concentration 10%, heat treatment of enzyme no, reaction time 0 h): 53.0%
- Decomposition efficiency: ratio of each glycoside/aglycon within its isoflavone family ([3]; defatted soybean, substrate concentration 10%, heat treatment of enzyme no, reaction time 1 h): 54.7%
